Here are results for 4 compounds from EP1834952A1, “Compound for promoting the growth of neural cells” (NatureWise Biotech & Medicals Corporation, priority 2006, dated 2007).

Type in all cases: cell-based, Wistar rat
One assay relates to neural stem cells. Nature of the assay: Differentiation of NSCs from neurospheres, MAP-2 immunofluorescent staining (Examples 5 and 6). The method, then: In the beginning of cultivating NSCs, either compound A or EGF was added into the growth media. The cells were cultivated for 3 days and the cells would aggregate to form neurospheres. One hundred µl of the cell suspension was aspirated and diluted to 1 ml. 250 µl of the supernatant which contained neurospheres was aspirated and placed on the cover slides coated with 30 µg/ml poly-D-lysine (Sigma). After all the cells had been attached onto the slides, the media was removed and replaced with the cultivating media containing compound A (FIG. 5A), EGF (FIG. 5C), or none of the growth factors (FIG. 5B, compound A in the beginning; FIG 5D, EGF in the beginning). The cells were cultivated for another 3 days at the same condition as described above so that the cells would differentiate into cortical neurons.
The cells were stained with a known immunofluorescent staining method. To stain the neurons, a neurological marker of MAP-2 (microtubule-associated protein 2) antibody was used as the primary antibody and a fluorescent material-labeled mouse immunoglobulin that identified primary antibody was used as the second antibody. After the primary antibody that had been bound onto the neurons was identified and bound by the secondary antibody, the neurons emit fluorescent light under the excitation of a specific light source.
The procedures were similar to Example 5. However, in the beginning of cultivating the neural stem cells, both compound D and EGF were added into the media. After all the cells had been attached onto the slides, the media were removed and replaced with the cultivating media containing compound D (FIG. 6B), EGF (FIG. 6C), none of the growth factors (FIG. 6D), or both compound D and EGF (FIG. 6A). The cells were cultivated for another 3 days and the cell morphology was observed thereafter by using immunofluorescent staining technique.

For assay [1], the system named is cortical neurons. Nature of the assay: Neurite length of cortical neurons cultivated at low density, by microscope (Example 4). Conditions: 38 cells/mm^2, 5 days; for growth of neurons and neurites under microscope: in the control all neural cells are dead. Here is the method:
Cells obtained from the suspension prepared in Example 1 were cultivated at a density of 38 cells/ mm^2 in 6-well plates coated with 30 µg/ml poly-D-lysine (Sigma) at 37°C, 5% CO2 and 95% relative humidity. The growth media contained compounds A, B, D, and G respectively and the growth media added with 5 µl of DMSO were used as control. The differentiated cells are categorically called cortical neurons.
The experiments were repeated three times. After cultivating for 5 days, the cells were observed under microscope and the length of the neurites was measured.

The subject of assay [2] is cortical neurons. Briefly: Survival of cortical neurons, live cell count by MTT assay (Examples 2 and 3). The conditions noted are these: 300 cells/mm^2; 5 days; versus DMSO control; FIG. 2. Here is the method:
Cells obtained from the suspension prepared in Example 1 were cultivated in 6-well plates coated with 30 µg/ml of poly-D-lysine (Sigma) at 300 cells/mm^2 and cultivated at 37°C, 5% CO2 and 95% relative humidity. The growth media contained compounds A, B, D, E, F, G, and H respectively and the growth media added with 5 µl of DMSO were used as control. The differentiated cells after cultivation were categorically called cortical neurons.
The experiments were repeated three times. After cultivating for 5 days, live cells were counted by a known cell-counting method (MTT assay) and the absorbance was read at 540 nm.
Cells obtained from the suspension prepared in Example 1 were cultivated at a density of 150 or 300 cells/mm^2 in 6-well plates coated with 30 µg/ml poly-D-lysine (Sigma) at 37°C, 5% CO2 and 95% relative humidity. The growth media contained compounds A, D, and G respectively and the growth media added with 5 µl of DMSO were used as control. The differentiated cells are categorically called cortical neurons.
The experiments were repeated three times. After cultivating for 5 days, the live cells were counted by a known cell-counting method (MTT assay) and the absorbance was read at 540 nm.
On the technique in general: Tetrazolium dyes change colour on reduction, which living cells bring about.

The subject of another assay is NSCs. Nature of the assay: Continuous cultivation of NSCs for 30 days, morphology and later differentiation (Example 7). Here is the method:
As in Example 1, the NSCs were cultivated continuously and the growth media were replaced every seven days. DMSO-added growth media were used as the negative control. After 30 days, 100 µl of the cell suspension was aspirated and diluted to 1 ml. 250 µl of the supernatant was aspirated and placed on the slides coated with 30 µg/ml poly-D-lysine (Sigma). The cell morphology was observed thereafter under a microscope.
Unlike the normal neural stem cells, the cells lose their propensity to aggregate and form spheres, and the cells become atrophic in the cultivating suspension. […] These cells were cultivated for another 3 days and the cells were stained with immunofluorescence the same as in Example 5.

For the compound `CC(C)=CCC/C(C)=C/Cc1c([C@@H]2CC(=O)c3c(O)cc(O)cc3O2)ccc(O)c1O` [compound D], in the assay with neural stem cells (both compound D and EGF in the beginning, compound D thereafter, FIG. 6B), the “differentiation of NSCs (MAP-2 staining)” value is recorded as “the cells will differentiate into neurons”. In addition, in the assay on cortical neurons [1] (5 µM), the “length of neurites, L1” value is 211 µm; the “neurites extending out of each soma” value is “at least 3”; the “growth of neurons and neurites under microscope” value (shortened to “growth of neurons and neurites”) is “continuous growth of the neurons and the extension of the neurites can be observed”. The “absorbance at 540 nm (live cells, MTT assay)” value (“absorbance at 540 nm” below) in the assay with cortical neurons [2] is reported as “best results”.

As to `CC(C)=CCC/C(C)=C/Cc1c(O)cc2c(c1O)C(=O)C[C@@H](c1ccc(O)c(O)c1CC=C(C)C)O2` [compound G], in the assay on cortical neurons [1] (5 µM), the “length of neurites, L1” value is recorded as 316 µm; the “length of neurites, L2” value came to 216 µm; the “neurites extending out of each soma” value was “at least 3”; the “growth of neurons and neurites” value is “continuous growth of the neurons and the extension of the neurites can be observed”. Also, the “absorbance at 540 nm” value in the assay on cortical neurons [2] is recorded as “best results”.

Take `C/C(=C\Cc1c([C@@H]2CC(=O)c3c(O)cc(O)cc3O2)ccc(O)c1O)CCCC(C)(C)O` [compound A]: the “differentiation of NSCs (MAP-2 staining)” value in the assay on neural stem cells (supplemented in the beginning (3 days) and thereafter at seeding on slides (another 3 days), FIG. 5A/5C) is reported as “the cells will differentiate into neurons”. In addition, the “differentiation of NSCs (MAP-2 staining)” value in the assay with neural stem cells (supplemented in the beginning only, none thereafter, FIG. 5B/5D) is recorded as “the cells will differentiate into neurons”. In the assay with cortical neurons [1] (2.5 µM), the “length of neurites, L1” value turned out to be 236 µm; the “length of neurites, L2” value was determined as 161 µm; the “neurites extending out of each soma” value was “at least 3”; the “growth of neurons and neurites” value was “continuous growth of the neurons and the extension of the neurites can be observed”. Also, the “absorbance at 540 nm” value with cortical neurons [2] is given as “best results”. The “cell morphology of NSCs after 30 days” value in the assay with NSCs (media replaced every seven days, almost no surviving cells in DMSO control, FIG. 7B) is recorded as “can maintain the characteristics of forming spherical clusters”. In the assay with NSCs (then another 3 days on slides, FIG. 7C), the “differentiation of 30-day neurospheres (immunofluorescence)” value is reported as “differentiating normally into neurons with the continuous outgrowth of neurites”.

`C/C(=C\Cc1cc([C@@H]2CC(=O)c3c(O)cc(O)cc3O2)cc(O)c1O)CCCC(C)(C)O` [compound B]: in the assay on cortical neurons [1] (5 µM), the “length of neurites, L1” value is 235 µm; the “neurites extending out of each soma” value is listed as “at least 3”; the “growth of neurons and neurites” value is “continuous growth of the neurons and the extension of the neurites can be observed”.
